Assay results: patent publication US4501699A, “Maggiemycin, anhydromaggiemycin and processes for making” (Litton Bionetics, Inc., priority 1982, dated 1985)
≈ marks a conversion by molar mass, not a printed value.

Legend:
[1] = tested on: murine tumor cell lines KB, L1210 and P388; assay: In vitro activity against one or all of the murine tumor cell lines KB, L1210 and P388; format: cell-based; details: for in vitro antitumor activity: one or all of KB, L1210 and P388
Description: (§1) A suitable solvent system was developed for the isolation of pure compounds of the invention by using the following systems in TLC. (A) chloroform (100%), (B) chloroform-ethyl acetate (80:20), (C) chloroform-acetone (80:20), (D) chloroform-methanol (80:20), (E) chloroform-acetic acid (95:5), (F) chloroform-acetone-acetic acid (90:8:2), (G) chloroform-hexane-acetic acid (50:50:5), (H) ether-petroleum ether (1:1), (I) chloroform-benzene methanol (6:3:1), (J) chloroform-benzene-methanol (7:3:2), (K) benzene-ethylacetate-methanol-formic acid-water (5:5:1.5:1:0.3), (L) chloroform-hexane-methanol (5:5:1) and (M) chloroform-heptane-methanol-acetic acid (40:40:18:2). In some of the solvents the order of elution changed. […] The crude compound was therefore chromatographed on a TLC grade silica gel column eluting with chloroform (100%), chlorform-acetic acid (99:1), chloroform-acetic acid (98:2), and chloroform-acetic acid (95:5). Based on the TLC, various fractions were combined to produce a red and purple eluate. These were separately concentrated and precipitated with chloroform-petroleum ether to yield red and purple powder. The red powder has been designated as maggiemycin (NSC-D344012) and the purple powder as anhydromaggiemycin. Both these compounds were active against Bacillus subtilis and Straphylococcus aureus. The in vitro antitumor activity of maggiemycin and anhydromaggiemycin against KB, P388 and L1210 murine cell lines is shown in Table 1.
The biological activity of these newly isolated anthracyclinones was compared with some of the known anthracyclinones. Each compounds was tested for in vitro activity against one or all of the murine tumor cell lines KB, L1210 and P388.

L1210 = assay: In vitro cytotoxicity (growth inhibition) against L1210; format: cell-based, murine; details: Mus musculus, dose level at which 50% inhibition of growth in vitro is noted vs. untreated controls, read-out: ED50 L1210
Description: as §1, with “The in vitro antitumor activity of maggiemycin and anhydromaggiemycin against KB, P388 and L1210 murine cell lines is shown in Table 1.” left out

Straphylococcus aureus = assay: Antibacterial activity against Straphylococcus aureus; format: cell-based
KB = assay: In vitro cytotoxicity (growth inhibition) against KB; format: cell-based, murine; details: Homo sapiens, dose level at which 50% inhibition of growth in vitro is noted vs. untreated controls, read-out: ED50 KB
Description: as §1, with “The in vitro antitumor activity of maggiemycin and anhydromaggiemycin against KB, P388 and L1210 murine cell lines is shown in Table 1.” left out

Bacillus subtilis = assay: Antibacterial activity against Bacillus subtilis; format: cell-based
P388 = assay: In vitro cytotoxicity (growth inhibition) against P388; format: cell-based, murine; details: Mus musculus, dose level at which 50% inhibition of growth in vitro is noted vs. untreated controls, read-out: ED50 P388
Description: as §1, with “The in vitro antitumor activity of maggiemycin and anhydromaggiemycin against KB, P388 and L1210 murine cell lines is shown in Table 1.” left out

Structure (SMILES) | in vitro antitumor activity [1] | IC50 (L1210) [µg/mL] | in vitro antitumor activity, comparison of anhydromaggiemycin with maggiemycin ([1]; relative to maggiemycin) | activity against Straphylococcus aureus (Straphylococcus aureus) | IC50 (KB) [µg/mL] | activity against Bacillus subtilis (Bacillus subtilis) | IC50 (P388) [µg/mL]
COc1cccc2c1C(=O)c1c(O)c3c(c(O)c1C2=O)C[C@@](O)(C(C)=O)CC3=O [7-oxidodaunorubicinone] | active | – | – | – | – | – | –
CCc1cc(O)c2c(O)c3c(c(O)c2c1C(=O)OC)C(=O)c1cccc(O)c1C3=O [Anhydromaggiemycin] | active | 0.26 (≈ 0.637 µM) | more active than maggiemycin | active | 0.51 (≈ 1.25 µM) | active | 0.62 (≈ 1.52 µM)
COc1cccc2c1C(=O)c1c(O)c3c(c(O)c1C2=O)C[C@@](O)(C(C)=O)C[C@@H]3O [daunorubicinone, Daunorubicinone, reference compound] | inactive | – | – | – | – | – | –
CC[C@@]1(O)CC(=O)c2c(O)c3c(c(O)c2[C@H]1C(=O)OC)C(=O)c1cccc(O)c1C3=O [Maggiemycin] | active | 5.2 (≈ 12.2 µM) | – | active | 2.7 (≈ 6.33 µM) | active | 4.4 (≈ 10.3 µM)
CC[C@@]1(O)C[C@H](O)c2c(O)c3c(c(O)c2[C@H]1C(=O)OC)C(=O)c1cccc(O)c1C3=O [ε-rhodomycinone, ε-Rhodomycinone, reference compound] | inactive | – | – | – | – | – | –
COc1cccc2c1C(=O)c1c(c(O)c3cc(C(C)=O)cc(O)c3c1O)C2=O [anhydro-7-oxidodaunorubicinone, Anhydro-7-oxidodaunorubicinone] | inactive | – | – | – | – | – | –
